Laboratory results: US12384772B2, “Inhibitors” (VIVORYON THERAPEUTICS N.V., priority 2017, dated 2025)
Like-named read-outs stand apart in the source and are kept apart here.

Biological target: Glutaminyl cyclase (QC) (Homo sapiens (Human), UniProt Q16769)
Test: Glutaminyl cyclase assay, determination of IC50 values and calculation of Ki values (H-Gln-AMC substrate, pGAP auxiliary enzyme; pH 8.0 or pH 6.0)
Type: biochemical
Procedure: 10 mM compound stock solutions were prepared in DMSO. For IC50 determination compound stocks were serially diluted (1:3) in DMSO.
All measurements were performed with an EnSpire Perkin Elmer multimode reader using glutaminyl-7-amino-4-methylcoumarin (H-Gin-AMC) as substrate and recombinant pyroglutamyl aminopeptidase (pGAP) as auxiliary enzyme. Reactions were carried out at ambient temperature in black 96-well half area microplates. Each sample consisted of 1 μl test compound solution or solvent (DMSO) and 49 μl QC appropriately diluted in assay buffer (50 mM Tris/HCl, pH 8.0 or 50 mM MES buffer, pH=6.0). After a 10 min preincubation at ambient temperature the enzyme reaction was started by adding 50 μl of Gln-AMC-substrate/pGAP mixture in assay buffer. Final substrate concentrations were 50 and 200 μM for measurement at pH 8.0 or 6.0, respectively. Release of flourogenic AMC were recorded at excitation/emission wavelengths of 380/460 nm. Initial velocity of the enzyme reaction was calculated by linear regression of the first 10 data points using the Enspire Manager software. Final evaluation and calculation of IC50s were performed using GraphPad Prism software.
Ki-values were calculated according to the following formula: Ki=IC50/(1+[S]/Km), where: […]

[1] = pH 6, read-out: hQC Ki [μM] pH6
[2] = pH 8, read-out: hQC Ki [μM] pH8

Sequence of Glutaminyl cyclase (QC) (Q16769 29-361): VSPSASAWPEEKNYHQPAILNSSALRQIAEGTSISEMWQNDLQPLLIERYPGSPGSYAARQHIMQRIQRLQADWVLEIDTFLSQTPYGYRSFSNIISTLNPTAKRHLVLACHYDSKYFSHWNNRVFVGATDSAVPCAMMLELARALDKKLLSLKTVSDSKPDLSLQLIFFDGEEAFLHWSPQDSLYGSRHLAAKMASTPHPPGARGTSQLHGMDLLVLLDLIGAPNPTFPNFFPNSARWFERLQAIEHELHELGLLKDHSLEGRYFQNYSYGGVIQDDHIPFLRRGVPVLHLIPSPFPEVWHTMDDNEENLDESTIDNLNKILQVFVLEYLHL

SMILES	Ki [1]	Ki [2]
COc1ccc(-c2ccncc2NCc2ccc3[nH]cnc3c2)cc1 [O7, N-(1H-1,3-benzodiazol-5-ylmethyl)-4-(4-methoxyphenyl)pyridin-3-amine]	11.1 µM	4.24 µM
COc1ccc(-c2cncnc2NCc2ccc3[nH]cnc3c2)cc1 [O8, N-(1H-1,3-benzodiazol-5-ylmethyl)-5-(4-methoxyphenyl)pyrimidin-4-amine]		18.3 µM
c1ccc(-c2ccc(OC3CCCCC3)cc2)c(NCc2ccc3[nH]cnc3c2)c1 [O17, N-(1H-1,3-benzodiazol-5-ylmethyl)-2-[4-(cyclohexyloxy)phenyl]aniline]	2.03 µM	4.17 µM
CC(C)Oc1ccc(-c2ccccc2NCc2ccc3[nH]cnc3c2)cc1 [O19, N-(1H-1,3-benzodiazol-5-ylmethyl)-2-[4-(propan-2-yloxy)phenyl]aniline]	1.53 µM	3.39 µM
COc1ccc(-c2c(C)cccc2NCc2ccc3[nH]cnc3c2)cc1 [O20, N-(1H-1,3-benzodiazol-5-ylmethyl)-2-(4-methoxyphenyl)-3-methylaniline]	2.38 µM	1.64 µM
Fc1cccc(NCc2ccc3[nH]cnc3c2)c1-c1ccc(Cl)cc1 [O22, N-(1H-1,3-benzodiazol-5-ylmethyl)-2-(4-chlorophenyl)-3-fluoroaniline]	4.89 µM	6.83 µM
O=S(=O)(NCc1ccc2[nH]cnc2c1)c1ccc(F)cc1 [P1, N-[(1H-1,3-benzodiazol-5-yl)methyl]-4-fluorobenzene-1-sulfonamide]	38.3 µM	24.7 µM

The remaining compounds from weak to strong by Ki [2], led by results:

Ki [1]	Ki [2]	SMILES
10.5 µM	11.7 µM	Fc1ccc(-c2nccnc2NCc2ccc3[nH]cnc3c2)cc1 [O15, N-(1H-1,3-benzodiazol-5-ylmethyl)-3-(4-fluorophenyl)pyrazin-2-amine]
15.1 µM	10.8 µM	COc1ccc(-c2cnccc2NCc2ccc3[nH]cnc3c2)cc1 [O6, N-(1H-1,3-benzodiazol-5-ylmethyl)-3-(4-methoxyphenyl)pyridin-4-amine]
5.81 µM	9.41 µM	Fc1ccc(-c2c(F)cccc2NCc2ccc3[nH]cnc3c2)cc1 [O24, N-(1H-1,3-benzodiazol-5-ylmethyl)-3-fluoro-2-(4-fluorophenyl)aniline]
2.74 µM	2.41 µM	COc1ccc(-c2cccnc2NCc2ccc3[nH]cnc3c2)cc1 [O5, N-(1H-1,3-benzodiazol-5-ylmethyl)-3-(4-methoxyphenyl)pyridin-2-amine]
1.9 µM	2.21 µM	COc1ccc(-c2nccnc2NCc2ccc3[nH]cnc3c2)cc1 [O9, N-(1H-1,3-benzodiazol-5-ylmethyl)-3-(4-methoxyphenyl)pyrazin-2-amine]
4.34 µM	2.11 µM	c1ccc(Oc2ccc(-c3ccccc3NCc3ccc4[nH]cnc4c3)cc2)cc1 [O16, N-(1H-1,3-benzodiazol-5-ylmethyl)-2-(4-phenoxyphenyl)aniline]
1.63 µM	0.88 µM	COc1ccc(-c2cnccc2NCc2ccc3[nH]cnc3c2)cc1OC [O10, N-(1H-1,3-benzodiazol-5-ylmethyl)-3-(3,4-dimethoxyphenyl)pyridin-4-amine]
0.13 µM	0.42 µM	COc1ccc(-c2nccnc2NCc2ccc3[nH]cnc3c2)cc1OC [O12, N-(1H-1,3-benzodiazol-5-ylmethyl)-3-(3,4-dimethoxyphenyl)pyrazin-2-amine]
0.43 µM	0.42 µM	COc1ccc(-c2c(C)cccc2NCc2ccc3[nH]cnc3c2)cc1OC [O21, N-(1H-1,3-benzodiazol-5-ylmethyl)-2-(3,4-dimethoxyphenyl)-3-methylaniline]
0.055 µM	0.1 µM	COc1ccc(-c2c(F)cccc2NCc2ccc3[nH]cnc3c2)cc1OC [O23, N-(1H-1,3-benzodiazol-5-ylmethyl)-2-(3,4-dimethoxyphenyl)-3-fluoroaniline]
